The values that follow come from article PMC6892603 (Bioorganic & medicinal chemistry letters, 2019).

Data set [1] has as its system T. gondii RH-dTom. Description: Activity against T. gondii RH-dTom. It counts as cell-based, Toxoplasma gondii.
A short description of data set [2]: Aqueous solubility by nephelometry. It counts as physicochemical. The settings on record: for Sol6.5: pH 6.5 phosphate buffer.
Data set [3] can be described thus: In vitro intrinsic clearance in human liver microsomes. The data set is classed as in vitro ADME.
Data set [4] addresses T. cruzi CYP51 (Trypanosoma cruzi, UniProt Q7Z1V1). As to the kind of experiment: T. cruzi CYP51 heme ligand binding. The settings on record: Soret band.
Data set [5] concerns panel of cancer cell lines. The settings on record: read-out: IC50 against a panel of cancer cell lines; previously reported; cited from earlier work.
Data set [6] is described as follows: Cytotoxicity screen, growth inhibition of HFF cells. The conditions noted are these: human.
Data set [7] is described as follows: Cytotoxicity screen, growth inhibition of HC-04 cells. The settings on record: human.
Data set [8] deals with L. donovani MHOM-ET 67/L82. As to the kind of experiment: Activity against L. donovani amastigotes, axenic assay.
Data set [9] can be described thus: Cytotoxicity screen, growth inhibition of HEK 293T cells. The conditions noted are these: human, Cytotoxicity IC50 HEK 293T, human kidney.
Data set [10] concerns Tulahuen C4 strain of Trypanosoma cruzi. As to the kind of experiment: microbe, parasite or virus in culture. The conditions noted are these: read-out: T. cruzi IC50.

Molecules are shown by their SMILES.

Chain of T. cruzi CYP51 (Q7Z1V1 whole entry): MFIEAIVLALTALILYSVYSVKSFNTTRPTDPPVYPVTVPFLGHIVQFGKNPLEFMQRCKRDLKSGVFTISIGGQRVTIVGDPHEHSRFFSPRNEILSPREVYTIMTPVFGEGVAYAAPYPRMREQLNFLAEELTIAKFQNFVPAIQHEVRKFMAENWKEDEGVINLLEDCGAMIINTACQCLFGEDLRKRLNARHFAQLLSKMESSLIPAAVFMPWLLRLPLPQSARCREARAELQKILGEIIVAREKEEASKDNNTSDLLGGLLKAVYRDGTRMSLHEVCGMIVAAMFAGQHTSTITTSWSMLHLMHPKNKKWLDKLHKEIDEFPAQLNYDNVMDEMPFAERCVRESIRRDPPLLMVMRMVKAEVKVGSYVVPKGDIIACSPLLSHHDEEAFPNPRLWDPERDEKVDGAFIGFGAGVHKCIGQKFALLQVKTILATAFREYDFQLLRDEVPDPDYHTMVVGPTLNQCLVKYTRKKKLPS

Regarding `CN1CCN(c2ccc(S(=O)(=O)NCc3ccc(C(=O)Nc4cccnc4)cc3)cc2)CC1` [Compound 2], in [1], the “Effect on growth of Toxoplasma gondii” value was “no effect on the growth”. Besides, the Sol6.5 in data set [2] was 25 to 50 µg/mL. In data set [3], this compound had a microsomal CLint of 45 µL/min/mg. In addition, in data set [4], the “T. cruzi CYP51 spectral response” value is reported as “moderate type II spectral response”. Further, the IC50 in data set [5] is 0.01 to 1 µM; in data set [6], above 50 µM; in data set [7] it was above 50 µM. In addition, the “Effect on growth of Leishmania donovani” value in data set [8] was “no effect on the growth”.
In data set [2] (0.01 M HCl (approx. pH 2.0)), `O=C(Nc1cccnc1)c1ccc(CNS(=O)(=O)c2ccc(N3CCOCC3)cc2)cc1` [Compound 5] came in with a Sol2.0 of 50 to 100 µg/mL. Also, in [2], the Sol6.5 fell in the range of 12.5 to 25 µg/mL. Besides, in data set [3], the microsomal CLint amounted to 69 µL/min/mg. The concentration for half-maximal inhibition (IC50) in data set [7] was above 50 µM; in [9], below 1 µM.
For `Cc1ncccc1NC(=O)c1ccc(CNS(=O)(=O)c2ccc(N3CCN(C)CC3)cc2)cc1` [Compound 14], in data set [4], the “T. cruzi CYP51 spectral response” value was “did not cause any changes”.
In data set [2], `CN1CCN(c2ccc(S(=O)(=O)NCc3ccc(-c4nc(-c5cccnc5)no4)cc3)cc2)CC1` [Compound 19] gave a Sol6.5 of 25 to 50 µg/mL. The IC50 in data set [6] and in data set [7] was above 50 µM throughout.
As for `O=C(Cn1ccnc1[N+](=O)[O-])NCc1ccccc1` [benznidazole], the concentration for half-maximal inhibition (IC50) in [10] is 1.2 to 4.2 µM.
